Reference: the NIST ThermoML archive (doi:10.1021/je900596d)
± gives the expanded uncertainty stated by the source.

Conditions: 362.9 K, Vibrating tube method

FC(F)=C(F)C(F)(F)F [hexafluoropropene]
Conditions	mass density [kg/m3]
986.7 kPa, Fluid (supercritical or subcritical phases)	55.35 ± 0.08
1010.4 kPa, Fluid (supercritical or subcritical phases)	56.58 ± 0.09
1044 kPa, Fluid (supercritical or subcritical phases)	59.01 ± 0.09
1060.4 kPa, Fluid (supercritical or subcritical phases)	59.9 ± 0.09
1076.4 kPa, Fluid (supercritical or subcritical phases)	61.11 ± 0.09
1097.9 kPa, Fluid (supercritical or subcritical phases)	62.31 ± 0.09
1119.7 kPa, Fluid (supercritical or subcritical phases)	63.86 ± 0.1
1141.5 kPa, Fluid (supercritical or subcritical phases)	65.33 ± 0.1
1162.5 kPa, Fluid (supercritical or subcritical phases)	66.89 ± 0.1
1202.5 kPa, Fluid (supercritical or subcritical phases)	69.4 ± 0.1
1221.4 kPa, Fluid (supercritical or subcritical phases)	70.92 ± 0.1
1239.6 kPa, Fluid (supercritical or subcritical phases)	71.99 ± 0.11
1257.3 kPa, Fluid (supercritical or subcritical phases)	73.4 ± 0.11
1274.3 kPa, Fluid (supercritical or subcritical phases)	74.42 ± 0.11
1293.3 kPa, Fluid (supercritical or subcritical phases)	76 ± 0.11
1312.3 kPa, Fluid (supercritical or subcritical phases)	77.04 ± 0.11
1331.5 kPa, Fluid (supercritical or subcritical phases)	78.67 ± 0.12
1349 kPa, Fluid (supercritical or subcritical phases)	79.84 ± 0.12
1367.1 kPa, Fluid (supercritical or subcritical phases)	81.15 ± 0.12
1388 kPa, Fluid (supercritical or subcritical phases)	82.53 ± 0.12
1408.2 kPa, Fluid (supercritical or subcritical phases)	83.98 ± 0.12
1429.7 kPa, Fluid (supercritical or subcritical phases)	85.75 ± 0.13
1447.9 kPa, Fluid (supercritical or subcritical phases)	86.99 ± 0.13
1484.9 kPa, Fluid (supercritical or subcritical phases)	89.9 ± 0.13
1503.2 kPa, Fluid (supercritical or subcritical phases)	91.22 ± 0.13
1521.3 kPa, Fluid (supercritical or subcritical phases)	92.61 ± 0.14
1544.9 kPa, Fluid (supercritical or subcritical phases)	94.44 ± 0.14
1567.8 kPa, Fluid (supercritical or subcritical phases)	96.26 ± 0.14
1613.4 kPa, Fluid (supercritical or subcritical phases)	99.81 ± 0.15
1634.9 kPa, Fluid (supercritical or subcritical phases)	101.65 ± 0.15
1655.8 kPa, Fluid (supercritical or subcritical phases)	103.37 ± 0.15
1676.7 kPa, Fluid (supercritical or subcritical phases)	104.81 ± 0.15
1696.6 kPa, Fluid (supercritical or subcritical phases)	106.47 ± 0.16
1716 kPa, Fluid (supercritical or subcritical phases)	108.07 ± 0.16
1734.8 kPa, Fluid (supercritical or subcritical phases)	109.59 ± 0.17
1753 kPa, Fluid (supercritical or subcritical phases)	111.4 ± 0.17
1771.1 kPa, Fluid (supercritical or subcritical phases)	112.78 ± 0.16
1788.6 kPa, Fluid (supercritical or subcritical phases)	114.27 ± 0.17
1805.4 kPa, Fluid (supercritical or subcritical phases)	115.72 ± 0.17
1838.2 kPa, Fluid (supercritical or subcritical phases)	118.54 ± 0.18
1868.9 kPa, Fluid (supercritical or subcritical phases)	121.28 ± 0.18
1898.3 kPa, Fluid (supercritical or subcritical phases)	124.13 ± 0.19
1923.7 kPa, Fluid (supercritical or subcritical phases)	126.25 ± 0.19
1953.6 kPa, Fluid (supercritical or subcritical phases)	129.06 ± 0.2
1971.3 kPa, Fluid (supercritical or subcritical phases)	130.89 ± 0.2
1988.2 kPa, Fluid (supercritical or subcritical phases)	132.28 ± 0.2
2005 kPa, Fluid (supercritical or subcritical phases)	133.86 ± 0.21
2021.3 kPa, Fluid (supercritical or subcritical phases)	135.65 ± 0.21
2037.3 kPa, Fluid (supercritical or subcritical phases)	137.17 ± 0.21
2066.9 kPa, Fluid (supercritical or subcritical phases)	140.08 ± 0.21
2099 kPa, Fluid (supercritical or subcritical phases)	143.21 ± 0.22
2115.6 kPa, Fluid (supercritical or subcritical phases)	144.99 ± 0.22
2133.5 kPa, Fluid (supercritical or subcritical phases)	146.69 ± 0.23
2152 kPa, Fluid (supercritical or subcritical phases)	148.88 ± 0.24
2207.8 kPa, Fluid (supercritical or subcritical phases)	154.82 ± 0.24
2239 kPa, Fluid (supercritical or subcritical phases)	158.23 ± 0.25
2255.7 kPa, Fluid (supercritical or subcritical phases)	160.15 ± 0.25
2279.2 kPa, Fluid (supercritical or subcritical phases)	162.54 ± 0.26
2296 kPa, Fluid (supercritical or subcritical phases)	164.49 ± 0.26
2320.6 kPa, Fluid (supercritical or subcritical phases)	167.17 ± 0.27
2341.1 kPa, Fluid (supercritical or subcritical phases)	169.73 ± 0.28
2363.6 kPa, Fluid (supercritical or subcritical phases)	172.35 ± 0.29
2382.4 kPa, Fluid (supercritical or subcritical phases)	174.89 ± 0.3
2399.2 kPa, Fluid (supercritical or subcritical phases)	176.97 ± 0.29
2416.1 kPa, Fluid (supercritical or subcritical phases)	178.92 ± 0.3
2454.2 kPa, Fluid (supercritical or subcritical phases)	183.72 ± 0.31
2471.2 kPa, Fluid (supercritical or subcritical phases)	185.86 ± 0.32
2493.7 kPa, Fluid (supercritical or subcritical phases)	188.92 ± 0.33
2510.8 kPa, Fluid (supercritical or subcritical phases)	191.35 ± 0.33
2532.7 kPa, Fluid (supercritical or subcritical phases)	194.2 ± 0.34
2568.3 kPa, Fluid (supercritical or subcritical phases)	199.28 ± 0.36
2584.5 kPa, Fluid (supercritical or subcritical phases)	201.68 ± 0.36
2637.6 kPa, Fluid (supercritical or subcritical phases)	209.57 ± 0.38
2655.8 kPa, Fluid (supercritical or subcritical phases)	212.2 ± 0.39
2673.6 kPa, Fluid (supercritical or subcritical phases)	215.1 ± 0.41
2690.3 kPa, Fluid (supercritical or subcritical phases)	217.71 ± 0.42
2706.4 kPa, Fluid (supercritical or subcritical phases)	220.44 ± 0.42
2736.2 kPa, Fluid (supercritical or subcritical phases)	225.31 ± 0.44
2764.5 kPa, Fluid (supercritical or subcritical phases)	230.31 ± 0.46
2781.5 kPa, Fluid (supercritical or subcritical phases)	233.26 ± 0.48
2809.5 kPa, Fluid (supercritical or subcritical phases)	238.5 ± 0.5
2870.6 kPa, Fluid (supercritical or subcritical phases)	250.29 ± 0.55
2897.9 kPa, Fluid (supercritical or subcritical phases)	256.08 ± 0.6
2916.5 kPa, Fluid (supercritical or subcritical phases)	260.21 ± 0.61
2944.7 kPa, Fluid (supercritical or subcritical phases)	266.58 ± 0.65
2978.3 kPa, Fluid (supercritical or subcritical phases)	274.33 ± 0.69
2997 kPa, Fluid (supercritical or subcritical phases)	278.8 ± 0.74
3015.2 kPa, Fluid (supercritical or subcritical phases)	283.34 ± 0.78
3032.8 kPa, Fluid (supercritical or subcritical phases)	287.81 ± 0.83
3049.7 kPa, Fluid (supercritical or subcritical phases)	292.35 ± 0.9
3066.4 kPa, Fluid (supercritical or subcritical phases)	297.12 ± 1
3119.6 kPa, Fluid (supercritical or subcritical phases)	313.41 ± 1.1
3140.3 kPa, Fluid (supercritical or subcritical phases)	320.42 ± 1.1
3159.2 kPa, Fluid (supercritical or subcritical phases)	327.22 ± 1.2
3176.3 kPa, Fluid (supercritical or subcritical phases)	333.78 ± 1.2
3193.5 kPa, Fluid (supercritical or subcritical phases)	340.76 ± 1.3
3209.9 kPa, Fluid (supercritical or subcritical phases)	347.93 ± 1.4
3229.3 kPa, Fluid (supercritical or subcritical phases)	357.01 ± 1.5
3246.9 kPa, Fluid (supercritical or subcritical phases)	366.07 ± 1.6
3263.4 kPa, Fluid (supercritical or subcritical phases)	375.24 ± 1.8
3285.9 kPa, Fluid (supercritical or subcritical phases)	389.23 ± 2
3305.8 kPa, Fluid (supercritical or subcritical phases)	403.5 ± 2.5
3341.5 kPa, Fluid (supercritical or subcritical phases)	436.07 ± 3
3360.9 kPa, Fluid (supercritical or subcritical phases)	459.89 ± 8
3377.9 kPa, Fluid (supercritical or subcritical phases)	530.57 ± 10
3394.4 kPa, Fluid (supercritical or subcritical phases)	567.77 ± 6.8
3410.4 kPa, Fluid (supercritical or subcritical phases)	601.27 ± 6.3
3426.7 kPa, Fluid (supercritical or subcritical phases)	633.69 ± 5
3445.3 kPa, Fluid (supercritical or subcritical phases)	659.79 ± 4
3463.4 kPa, Fluid (supercritical or subcritical phases)	682.18 ± 3.6
3480.7 kPa, Fluid (supercritical or subcritical phases)	701.66 ± 3
3498.4 kPa, Fluid (supercritical or subcritical phases)	717.14 ± 2.6
4505.3 kPa, Fluid (supercritical or subcritical phases)	920.24 ± 0.99
4525.6 kPa, Fluid (supercritical or subcritical phases)	921.9 ± 0.99
4552.8 kPa, Fluid (supercritical or subcritical phases)	924.12 ± 1
4579.3 kPa, Fluid (supercritical or subcritical phases)	926.3 ± 1
4626.5 kPa, Fluid (supercritical or subcritical phases)	929.99 ± 1
4646.5 kPa, Fluid (supercritical or subcritical phases)	931.47 ± 1
4666.9 kPa, Fluid (supercritical or subcritical phases)	932.99 ± 1
4687.6 kPa, Fluid (supercritical or subcritical phases)	934.6 ± 1
4707.8 kPa, Fluid (supercritical or subcritical phases)	936.1 ± 1
4762.6 kPa, Liquid	939.84 ± 1.1
4784.8 kPa, Liquid	941.44 ± 1.1
4810.7 kPa, Liquid	943.09 ± 1.1
4836.8 kPa, Liquid	944.88 ± 1.1
4878.2 kPa, Liquid	947.51 ± 1.1
4899.5 kPa, Liquid	948.95 ± 1.1
4921.9 kPa, Liquid	950.41 ± 1.1
4942.5 kPa, Liquid	951.63 ± 1.1
4962.8 kPa, Liquid	952.76 ± 1.1
4983.6 kPa, Liquid	954.01 ± 1.1
5010.6 kPa, Liquid	955.79 ± 1.1
5047.3 kPa, Liquid	957.89 ± 1.1
